Data taken from PubChem BioAssay AID302 (DTP/NCI, 2004).
“And” between values parts separate entries of the source, which are not always exact repeats. Identical values can stand only once. Toxic doses and inconclusive results are not listed. The calls were made as follows: active = survival T/C of 150% or more; inactive = T/C below 125% in these data.

Test system: BALB/c mice, Madison 109 lung carcinoma i.m., survival
Experiment: NCI In Vivo Anticancer Drug Screen. Data for tumor model Madison 109 Lung Carcinoma (intramuscular) in BALB/CM mice
Settings: endpoint: median survival time, higher = longer survival
Protocol: The antitumor activity of compounds was measured in mice bearing transplantable tumors. Survival or tumor size were measured and the results are expressed as the measurement made in the treated group (T) divided by the measurement made in the vehicle treated control group (C). The tumor model used in this assay is Madison 109 Lung Carcinoma (intramuscular) in BALB/CM mice

[1] = dose: 32.0 mg/kg/injection, schedule: Q01DX009 (ip), vehicle: saline with Tween-80
[2] = dose: 64.0 mg/kg/injection, schedule: Q01DX009 (ip), vehicle: saline with Tween-80
[3] = dose: 12.5 mg/kg/injection, schedule: Q01DX009 (ip), vehicle: saline with Tween-80
[4] = dose: 25.0 mg/kg/injection, schedule: Q01DX009 (ip), vehicle: saline with Tween-80
[5] = dose: 50.0 mg/kg/injection, schedule: Q01DX009 (ip), vehicle: saline with Tween-80
[6] = dose: 0.5 mg/kg/injection, schedule: Q01DX009 (ip), vehicle: saline
[7] = dose: 1.0 mg/kg/injection, schedule: Q01DX009 (ip), vehicle: saline
[8] = dose: 32.0 mg/kg/injection, schedule: Q01DX009 (ip), vehicle: saline
[9] = dose: 100.0 mg/kg/injection, schedule: Q01DX009 (ip), vehicle: saline with Tween-80
[10] = dose: 200.0 mg/kg/injection, schedule: Q01DX009 (ip), vehicle: saline with Tween-80
[11] = dose: 400.0 mg/kg/injection, schedule: Q01DX009 (ip), vehicle: saline with Tween-80

Measured: T/C

c1ccc([C@H]2CN3CCSC3=N2)cc1
inactive: dose: 5.0 mg/kg/injection, schedule: Q01DX009 (ip), vehicle: saline 94 % of control | dose: 10.0 mg/kg/injection, schedule: Q01DX009 (ip), vehicle: saline 96 % of control | dose: 20.0 mg/kg/injection, schedule: Q01DX009 (ip), vehicle: saline 103 % of control

CC(=O)c1cccc(NC2C(N)C(NC(=O)N(C)C)(C(C)O)C(C)(O)C2(O)COC(=O)c2c(C)cccc2O)c1 (stereo unspecified)
inactive: dose: 0.3 mg/kg/injection, schedule: Q01DX009 (ip), vehicle: saline 98 % of control | dose: 0.6 mg/kg/injection, schedule: Q01DX009 (ip), vehicle: saline 100 % of control | dose: 1.2 mg/kg/injection, schedule: Q01DX009 (ip), vehicle: saline 103 % of control

COc1ccc(C[C@H](N)C(=O)NC2C(CO)OC(n3cnc4c(N(C)C)ncnc43)C2O)cc1 (stereo partly specified)
inactive: dose: 8.0 mg/kg/injection, schedule: Q01DX009 (ip), vehicle: saline with Tween-80 101 % of control | dose: 16.0 mg/kg/injection, schedule: Q01DX009 (ip), vehicle: saline with Tween-80 104 % of control | [1] 104 % of control | [2] 121 % of control

ClC1=C(Cl)C2(Cl)C3C(Cl)C(Cl)CC3C1(Cl)C2(Cl)Cl (stereo unspecified)
inactive: dose: 6.25 mg/kg/injection, schedule: Q01DX009 (ip), vehicle: saline with Tween-80 110 % of control and 113 % of control | [3] 100 % of control and 120 % of control | [4] 89 % of control and 95 % of control | [5] 102 % of control and 116 % of control

CC1=C(/C=C/C(C)=C/C=C/C(C)=C/C(=O)O)C(C)(C)CCC1
inactive: [6] 107 % of control | [7] 110 % of control | dose: 2.0 mg/kg/injection, schedule: Q01DX009 (ip), vehicle: saline 100 % of control | dose: 4.0 mg/kg/injection, schedule: Q01DX009 (ip), vehicle: saline 93 % of control and 94 % of control | dose: 8.0 mg/kg/injection, schedule: Q01DX009 (ip), vehicle: saline 98 % of control and 100 % of control | dose: 16.0 mg/kg/injection, schedule: Q01DX009 (ip), vehicle: saline 108 % of control | [8] 104 % of control

O=C(O)CCCc1ccc(N(CCCl)CCCl)cc1
inactive: dose: 1.5 mg/kg/injection, schedule: Q01DX009 (ip), vehicle: saline with Tween-80 103 % of control | dose: 3.0 mg/kg/injection, schedule: Q01DX009 (ip), vehicle: saline with Tween-80 101 % of control | dose: 6.0 mg/kg/injection, schedule: Q01DX009 (ip), vehicle: saline with Tween-80 88 % of control

O=c1ccn(C2OC(CO)C(O)C2O)c(=O)[nH]1 (stereo unspecified)
inactive: [8] 111 % of control | dose: 64.0 mg/kg/injection, schedule: Q01DX009 (ip), vehicle: saline 99 % of control | dose: 128.0 mg/kg/injection, schedule: Q01DX009 (ip), vehicle: saline 93 % of control | dose: 256.0 mg/kg/injection, schedule: Q01DX009 (ip), vehicle: saline 104 % of control | dose: 512.0 mg/kg/injection, schedule: Q01DX009 (ip), vehicle: saline 98 % of control

Cc1c[nH]c(=O)[nH]c1=O
inactive: [1] 115 % of control and 118 % of control | [2] 97 % of control and 112 % of control | dose: 128.0 mg/kg/injection, schedule: Q01DX009 (ip), vehicle: saline with Tween-80 86 % of control and 115 % of control | dose: 256.0 mg/kg/injection, schedule: Q01DX009 (ip), vehicle: saline with Tween-80 106 % of control and 118 % of control | dose: 512.0 mg/kg/injection, schedule: Q01DX009 (ip), vehicle: saline with Tween-80 101 % of control and 102 % of control

COc1cccc2c1C(=O)c1c(O)c3c(c(O)c1C2=O)CC(O)(C(=O)CO)CC3OC1CC(N)C(O)C(C)O1 (stereo unspecified)
inactive: dose: 10.0 mg/kg/injection, schedule: Q01DX009 (ip), vehicle: saline with Tween-80 100 % of control | dose: 20.0 mg/kg/injection, schedule: Q01DX009 (ip), vehicle: saline with Tween-80 108 % of control

O=C(N[C@H](CO)[C@H](O)c1ccc([N+](=O)[O-])cc1)C(Cl)Cl
inactive: [9] 118 % of control | [10] 107 % of control | [11] 118 % of control

CC(C)CC(NC(=O)C(O)C(N)Cc1ccccc1)C(=O)O (stereo unspecified)
inactive: dose: 10.0 micrograms/kg/injection, schedule: Q01DX005 (ip), vehicle: saline 101 % of control

CN(C)/N=N/c1nc[nH]c1C(N)=O
inactive: [4] 124 % of control | [5] 119 % of control | [9] 108 % of control

COc1cc2c(c(OC)c1OC)-c1ccc(OC)c(=O)cc1[C@@H](NC(C)=O)CC2
inactive: dose: 0.13 mg/kg/injection, schedule: Q01DX009 (ip), vehicle: saline 104 % of control | dose: 0.25 mg/kg/injection, schedule: Q01DX009 (ip), vehicle: saline 104 % of control | [6] 108 % of control | [7] 104 % of control

Nc1n[nH]c(N)n1
inactive: [9] 93 % of control | [10] 101 % of control | [11] 104 % of control | dose: 800.0 mg/kg/injection, schedule: Q01DX009 (ip), vehicle: saline with Tween-80 110 % of control | dose: 1600.0 mg/kg/injection, schedule: Q01DX009 (ip), vehicle: saline with Tween-80 108 % of control

Nc1ccc(S(=O)(=O)c2ccc(N)cc2)cc1
inactive: [3] 102 % of control | [4] 103 % of control and 115 % of control | [5] 113 % of control and 117 % of control | [9] 112 % of control | [10] 96 % of control and 102 % of control | [11] 108 % of control

CC(C)NCC(O)COc1cccc2ccccc12 (stereo unspecified)
inactive: dose: 4.0 mg/kg/injection, schedule: Q01DX009 (ip), vehicle: saline with Tween-80 111 % of control | [1] 124 % of control | [2] 120 % of control
